Values of other authors, collected in EP4699692A1, “ACIDIC GAS ADSORBENT, STRUCTURE COMPRISING ACIDIC GAS ADSORBENT, ACIDIC GAS ADSORPTION DEVICE, AND ACIDIC GAS ADSORBENT PRODUCTION METHOD” (Nitto Denko Corporation, priority 2023, dated 2024).

Columns and labels:
[1] = amine monomer
[2] = amine monomer; remark: listed apart in the source
[3] = amine monomer; regulatory class
[4] = amine monomer; regulatory class; remark: listed apart in the source

For `NCCNCCNCCN` [TETA, triethylenetetramine], the “Mutagenicity test (Ames test)” value [1] is given as “Positive”, the “Skin irritation test (rabbit)” value [2] is given as “Strong irritant” and the “Fire Service Act” value [3] is given as “Hazardous material category IV class III petroleums”. For the same compound, the “Poisonous and Deleterious Substances Control Act” value [4] was “Deleterious substance”.
